Reference: patent publication EP4124338A1, “SIGMA-1 RECEPTOR ACTIVATOR FOR USE IN THE TREATMENT OF A PATHOLOGY ASSOCIATED WITH WFS1 MUTATION” (Université de Montpellier, priority 2021, dated 2023)
Where a name gives a salt, the structure may show the parent alone.

What was measured:
Wfs1^ΔExon8 mice [1] = assay: Spontaneous alternation in the Y-maze (spatial working memory); type: in vivo; conditions: male Wfs1^ΔExon8 mice; PRE-084 0.3 mg/kg ip (legend b25; b84 says 1 mg/Kg) 30 min before the Y-maze session; Fig. 2
Description: (§1) Drugs and administration procedures: 2-(4-morpholinethyl)-1-phenylcyclohexanecarboxylate hydrochloride (PRE-084) was from Sigma-Aldrich (Saint-Quentin-Fallavier, France). […]
Spontaneous alternation in the Y-maze: The test assesses spatial working memory. The maze was made of grey polyvinylchloride. Each arm was 40 cm long, 13 cm high, 3 cm wide at the bottom, 10 cm wide at the top, and converging at an equal angle. Each mouse was placed at the end of one arm and allowed to move freely through the maze during an 8 min session. The series of arm entries, including possible returns into the same arm, was recorded visually. An alternation was defined as entries into all three arms on consecutive occasions. The number of maximum alternations was therefore the total number of arm entries minus two and the percentage of alternation was calculated as (actual alternations/maximum alternations) × 100. […] Thirteen animals were discarded accordingly corresponding to 26% attrition. […]

Wfs1^ΔExon8 mice [2] = assay: Step-through type passive avoidance test (non-spatial long-term memory); type: in vivo; conditions: male Wfs1^ΔExon8 mice, 0.3 mg/kg ip 30 min before training, retention
Description: as §1
Step-through type passive avoidance test: The test measures non-spatial long-term memory. The apparatus is a two-compartments (15 × 20 × 15 cm high) box with one illuminated with white polyvinylchloride walls and the other darkened with black polyvinylchloride walls and a grid floor. A guillotine door separates each compartment. A 60 W lamp positioned 40 cm above the apparatus lights up the white compartment during the experiment. Scrambled foot shocks (0.3 mA for 3 s) could be delivered to the grid floor using a shock generator scrambler (Lafayette Instruments, Lafayette, USA). The guillotine door was initially closed during the training session. Each mouse was placed into the white compartment. After 5 s, the door was raised. […] The step-through latency, that is, the latency spent to enter the darkened compartment, and the shock sensitivity (estimated as 0 = no reaction, 1 = flinching reactions, 2 = flinchings and vocalizations) were recorded. […] The step-through latency and escape latency (corresponding to the time spent to exit the dark compartment) were recorded up to 300 s each. […]

Wfs1^ΔExon8 mice [3] = assay: Elevated plus-maze test (anxiety); type: in vivo; conditions: female Wfs1^ΔExon8 mice, 0.3 mg/kg ip 30 min before
Description: as §1
Elevated plus-maze test: The apparatus consisted of two open arms (24 × 8 cm^2), in white PVC, and two enclosed arms (24 × 8 × 20 cm^3), in dark grey PVC. The arms extended from a central platform (8 × 8 cm), and the maze was elevated to a height of 50 cm above the floor. Each mouse was placed at the centre of the plus-maze and its exploration behaviour was recorded during 10 min. The time spent and numbers of entries into the enclosed or open arms were recorded. Results were expressed as total number of entries into the arms, time spent in the open arms, time spent per visit in the open arms.
(§2) Experimental series: For phenotyping, animals were tested in series in the different behavioral tests assessing activity, learning and memory or anxiety, finishing with the most stressful procedures: (1) open-field (1 day), (2) spontaneous alternation (1 day), (3) object recognition (2 days), (4) place learning in the water-maze water-maze (5+2 days), (5) passive avoidance (2 days), (6) elevated plus-maze (1 day), and (7) black-and-white box exploration (1 day), in that order and over 16 days. For PRE-084 treatment experiments, animals were tested in series on a limited number of tests: spontaneous alternation (1 day), object recognition (2 days) and passive avoidance (2 days) for males, elevated plus-maze (1 day) and black-and-white box (1 day) for females.

Wfs1ab^KO larvae = assay: Visual Motor Response (VMR), locomotor activity of larvae during light OFF periods; type: in vivo, zebrafish; conditions: Fig. 9
Method: Zebrafish Generation: All experiments were performed in accordance with the 2010/63/EU Directive and the ARRIVE guidelines. Zebrafish were purchased at the KIT - European Zebrafish Resource Center. Heterozygous Wfs1a^C799X and Wfs1b^W493X mutant line were maintained in an automated fish tank system (ZebTEC, Tecniplast) at 28°C, pH 7, conductivity around 500 µS and with a 14h:10h light:dark cycle. They were fed with standard diet. Heterozygous Wfs1a^C799X/+ zebrafish were crossed to generate wild-type (Wfs1a^WT) and homozygous mutant Wfs1a^C799X zebrafish (Wfs1a^C799X), which became progenitors in order to generate future generations for the experiments. […]
Visual Motor Response (VMR): The VMR assay quantifies the locomotor activity of zebrafish larvae to light changes using infrared tracking system. […] At 5-dpf, the locomotor behavior of larvae was monitored by using an automated videotracking device (Zebrabox®, ViewPoint) by employing a DinionXF 1/3-inch Monochrome camera (model BFLY-PGE-13H2M, FLIR) fitted with a fixed-angle megapixel lens (SR5014MP-5C, SEIKO Optical). […] The floor of the box emitted by a light-controlling unit a white light (69-83 µW/cm2 measured at 495 λ). The response to stimuli was recorded by an infra-red (IR) camera (25 frames/s) under IR light illumination at 850 nm, which the animals could not perceive. […] The distance covered was measured in mm/s. […]

Wfs1^ΔExon8 mice [4] = assay: Place learning in the water-maze (spatial reference memory); type: in vivo
Method: as §1
Place learning in the water-maze: Spatial reference memory was analyzed using a water-maze procedure. A transparent Plexiglas non-slippery platform (Ø 10 cm) was immersed in a circular pool (Ø 140 cm, height 40 cm), under the water surface during acquisition. The water temperature, 23 ± 1°C, light intensity, external cues in the room, and water opacity were rigorously reproduced. Swimming was videotracked (Viewpoint), with trajectories being analyzed as latencies and distances. The software divided the pool into four quadrants. Training consisted in three swims per day for 6 days, with 15 min intertrial-time interval. Start positions, set at each limit between quadrants, were randomly selected and each mouse was allowed a 90 s swim to find the platform, initially placed in the NE quadrant. […] The median latency and swim path length were calculated for each training day. Acquisition slopes were also calculated individually over the acquisition period. Forty-eight hours after the last swim, on day 7, a probe test was performed during which the platform was removed and each animal allowed a free 60 s swim. The time spent in the training (T) quadrant and the average of time spent in the 3 others (o) were determined. On days 8, mice were re-tested in the water-maze for assessing visual ability and non-spatial learning. They were submitted to the acquisition of a visible platform placed in a new location, with training consisting in three swims per day with 15 min intertrial-time interval. Swimming was analyzed as latencies. No exclusion criterion has been set in this test.

Wfs1^ΔExon8 mice [5] = assay: Object recognition test (short-term recognition memory); type: in vivo; conditions: male Wfs1^ΔExon8 mice
Description: as §1
Object recognition test: The test measures short-term recognition memory. The apparatus consisted in four squared open-fields (50 cm × 50 cm × 50 cm high) made in white Plexiglas and placed on a floor equipped with infrared (IR) light emitting diodes. The locomotor activity of the animal and position of their nose could be captured through an IR-sensitive camera and analyzed using the Videotrack® and Nosetrack® softwares (Viewpoint). Session 1: animals were allowed to acclimate during 10 min to the open-field. The mouse locomotion was analyzed by videotracking. […] Each mouse was placed in the open-field and the exploratory activity and nose position was recorded during 10 min. The activity was analyzed by videotracking in terms of number of contacts with the objects and duration of contacts. […] Each mouse was placed again in the open-field and the exploratory activity recorded during 10 min. The activity was analyzed similarly. The preferential exploration index was calculated as the ratio of the number of contacts with the object in position 2 over the total number of contacts with the two objects. […]

Wfs1^ΔExon8 mice [6] = assay: Black-and-white exploration box test (anxiety); type: in vivo; conditions: female Wfs1^ΔExon8 mice, 0.3 mg/kg ip 30 min before
Description: as §1
Black-and-white exploration box test: Anxiety level of WFS1 KO mice was first examined using the black-and-white exploration box. It consisted of two adjacent compartments (23 × 16 × 10 cm^3) separated by a small opening (6 × 6 cm^2). The light compartment is brightly lit from above and covered with a transparent lid, and the dark compartment is covered with a black lid. Mice were placed in the light box, and exploration measured during 10 min by IR videotracking (Viewpoint). The time spent in each compartment and number of crossings among compartments were recorded. The time in the light compartment per visit was calculated. […] Seven animals were discarded accordingly corresponding to 14% attrition.
as §2

O=C(OCCN1CCOCC1)C1(c2ccccc2)CCCCC1 [PRE-084, 2-(4-morpholinethyl)-1-phenylcyclohexanecarboxylate hydrochloride]
spontaneous alternation (Wfs1^ΔExon8 mice [1]): very significant recovery of spontaneous alternation | escape latency (Wfs1^ΔExon8 mice [2]; Fig. 5b): significantly reduced | step-through latency deficit (Wfs1^ΔExon8 mice [2]; compared to V-treated Wfs1^WT mice, Fig. 5a): very significant for V-treated Wfs1^ΔExon8 mice but not for PRE-084-treated Wfs1^ΔExon8 mice | maze exploration (total number of arm entries) (Wfs1^ΔExon8 mice [3]; Fig. 7a): no impact was noted | time spent in open arms (Wfs1^ΔExon8 mice [3]; Fig. 7b): slightly increased | time per visit in open arms (Wfs1^ΔExon8 mice [3]; Fig. 7c): significantly increased | hyperlocomotor response (Wfs1ab^KO larvae; at 3 and 10 µM in the bath): down to the WT line mobility | hyperlocomotor response (Wfs1ab^KO larvae; between 0.1 and 10 µM in the bath, 4 dpf to 5 dpf): concentration-dependent decrease of the hyperlocomotor response | acquisition slopes (Wfs1^ΔExon8 mice [4]; male Wfs1^ΔExon8 mice, compared to V-treated Wfs1^WT mice, Fig. 4c): only vehicle (V)-treated Wfs1^ΔExon8 mice showed a statistically significant decrease | delay in acquisition / swimming latencies (Wfs1^ΔExon8 mice [4]; male Wfs1^ΔExon8 mice, daily injection 0.3 mg/kg ip 30 min before 1st swim of each training trial, Fig. 4b): prevented this delay and significantly decreased swimming latencies during the two last trials | probe test, exploration of the T quadrant (Wfs1^ΔExon8 mice [4]; male mice, 60-s swim without platform, Fig. 4d): no impact of the PRE-084 was noted | object exploration during session 2 (Wfs1^ΔExon8 mice [5]; 0.3 mg/kg ip 30 min before session with two identical objects, Fig. 3a): failed to affect object exploration | exploration for the novel object in session 3 (Wfs1^ΔExon8 mice [5]; 0.3 mg/kg ip, Fig. 3b): attenuated the deficit of exploration for the novel object | number of crossing (Wfs1^ΔExon8 mice [6]; Fig. 6a): slightly reduced | time spent in the light compartment (Wfs1^ΔExon8 mice [6]; Fig. 6b): increased up to the levels of Wfs1^WT mice | time per visit (light compartment) (Wfs1^ΔExon8 mice [6]; Fig. 6c): increased up to the levels of Wfs1^WT mice
